This note sets out measurements from patent US20090176791A1, “Diaryl Ureas for Treating Pulmonary Hypertension” (BAYER HEALTHCARE AG, priority 2005, published 2009).

The experiment deals with monocrotaline-treated rats with pulmonary hypertension. To be noted: MCT-induced pulmonary arterial hypertension, 10 mg/kg by gavage once daily from day 14 to day 28 after MCT.

Protocol: The effects of the compounds and drug combinations according to the invention are tested in vitro on isolated rat pulmonary arteries and in vivo in monocrotaline-treated rats with pulmonary hypertension.
Male Sprague Dawley rats (250-300 g) are treated with monocrotaline 60 mg/kg subcutaneously (=day 0). On day 14 after monocrotaline injection treatment the compound/combination to be tested is administered. On day 28 hemodynamic parameters, i.e. right ventricular pressure, systemic blood pressure, heart rate, arterial and venous oxygen saturation are measured and compared with untreated control animals.

Consider `CNC(=O)c1cc(Oc2ccc(NC(=O)Nc3ccc(Cl)c(C(F)(F)F)c3)cc2)ccn1.Cc1ccc(S(=O)(=O)O)cc1` [p-toluenesulfonic acid salt of 4{4-[3-(4-chloro-3-trifluoromethylphenyl)-ureido]-phenoxy}-pyridine-2-carboxylic acid methyl amide], for which, for the setting “day 28”, the “right ventricle/left ventricle+septum ratio (right ventricular hypertrophy)” value is listed as 0.26±0.01. For the same molecule, under “measured on day 28, mean±SEM”, the “right ventricular systolic pressure” value was found to be 36.50±1.50 mmHg.
